Test results published in US11447525B2 (NIIGATA UNIVERSITY, priority 2018, dated 2022).
Non-standard residues stand in square brackets, D forms with d. Residues, ends and D or L forms follow the SMILES beside them. *: point of attachment. 5FAM = O=C1OC2(c3ccc(O)cc3Oc3cc(O)ccc32)c2ccc(C(=O)*)cc21; NMeR = CN[C@@H](CCCNC(=N)N)C(=O)O

Key:
[1] = tested on: pancreatic cancer cells (BxPC3, PK-8, MIA-Paca2); experiment: Accumulation of FAM-labeled peptides in cells, inverted fluorescence microscope (Test Example 2); type: cell-based, human; conditions: 2 μM, 37° C., 2 hours
Protocol: Tests were conducted to confirm the accumulation of each peptide in each of the cells shown below in Table 8. Further, among the peptides shown below in Table 9, the FAM-PCPP11 used in Test Example 1, the LL peptide in which the N-terminus had been FAM-labeled (FAM-LL), and the Ld peptide in which the N-terminus had been FAM-labeled (FAM-Ld) were used.
Each of FAM-PCPP11, FAM-LL and FAM-Ld was added to each of the cells shown in Table 8 in an amount sufficient to achieve a final concentration in the medium of 2 μM, and following cultivation of the cells at 37° C. for 2 hours, the sample was washed 3 times with a medium containing no peptide to remove any peptide within the medium. Subsequently, the incorporation of each of the peptides into each of the cells was evaluated visually using an inverted fluorescence microscope. Prior to the microscopic examination, the culture supernatant to which the peptide had been added was removed, and following washing three times with 1×PBS (−), a trypsin treatment was conducted to remove the adherent cells, and the resultant was immediately transferred into a new 96-well plate and once again suspended in fresh culture solution before the microscopic examination was performed. In FIG. 8A, “L” indicates the cells to which FAM-PCPP11 was added, “LL” indicates the cells to which FAM-LL was added, and “Ld” indicates the cells to which FAM-Ld was added. Further, the fluorescent images in the BxPC3 cells indicate a representative example of pancreatic cancer cells.
Furthermore, FIG. 8B is a graph quantifying the fluorescence detected in each of the above cells in FIG. 8A, with the fluorescence intensity detected in each cell shown relative to a value of 1.0 for the fluorescence detected in the H2110 cells, which is a cell line derived from an adenocarcinoma in a human non-small-cell lung cancer system, to which each of the FAM-PCPP11 and FAM-LL peptides had been added.
Further, each of FAM-PCPP11, FAM-LL and FAM-NmLL was added to each of the cells shown in Table 8 in an amount sufficient to achieve a final concentration in the medium of 2 μM, and following cultivation of the cells at 37° C. for 2 hours, the sample was washed 3 times with a medium containing no peptide to remove any peptide within the medium. Subsequently, the incorporation of each of the peptides into each of the cells was evaluated visually using an inverted fluorescence microscope. […]

[2] = tested on: scirrhous pancreatic cancer model mice (BxPC3, MIA-Paca2, AsPC1 or Capan-2 cells with hMSC); experiment: Selective absorption of FAM-NmLL in tissues of scirrhous pancreatic cancer model mice (Test Example 7); type: in vivo, NOD/SCID, KPC and KC mouse; conditions: 200 μg into the caudal vein, 30 minutes after administration; all of the mouse models
Protocol: FAM-NmLL was administered to pancreatic cancer model mice having scirrhous carcinoma, and the selective absorption of the FAM-NmLL in various tissues of the mouse was confirmed. A scirrhous pancreatic cancer model mouse having scirrhous carcinoma that forms abundant tumor-stroma interactions was produced in accordance with the method disclosed in the above Reference Document 1. Specifically, a 6-week old NOD/SCID mouse (CLEA Japan Inc., Japan), a Pdx1-Cre/KRAS^G12D (KC) mouse having a mutation in K-Ras, and a Pdx1-Cre/KRAS^G12D; p53^R172H (KPC) mouse having pancreatic cancer-specific mutations in K-Ras and p53 were raised under pathogen-free conditions. […]
FAM-NmLL (200 μg) was injected into the caudal vein of each of the obtained scirrhous pancreatic cancer model mice. Subsequently, the pharmacokinetics of the peptide 30 minutes after administration were analyzed by tissue analysis of the freshly dissected specimen of the peptide-administered mouse. […]

absorption into the cancer cell nests inside the tumor tissues [2]: strong absorption
absorption into the tumor tissues (main lesions and metastatic lesions) [2]: strong absorption
Structure (SMILES): C[C@@H](O)[C@H](NC(=O)[C@@H](NC(=O)[C@@H]1CCCN1C(=O)[C@H](CCCNC(=N)N)NC(=O)[C@H](CCCNC(=N)N)NC(=O)CNC(=O)[C@@H]1CCCN1C(=O)[C@H](CCCCN)NC(=O)[C@H](Cc1c[nH]cn1)NC(=O)[C@H](Cc1c[nH]c2ccccc12)NC(=O)[C@@H](NC(=O)[C@@H](NC(=O)[C@@H]1CCCN1C(=O)[C@H](CCCNC(=N)N)N(C)C(=O)[C@H](CCCNC(=N)N)NC(=O)c1ccc2c(c1)C(=O)OC21c2ccc(O)cc2Oc2cc(O)ccc21)[C@@H](C)O)[C@@H](C)O)[C@@H](C)O)C(=O)N[C@@H](Cc1c[nH]c2ccccc12)C(=O)N[C@@H](Cc1c[nH]cn1)C(=O)N[C@@H](CCCCN)C(=O)N1CCC[C@H]1C(=O)O [FAM-NmLL] (5FAM-R[NMeR]PTTWHKPGRRPTTWHKP-OH; C-terminus assumed)
fluorescence compared with the sample containing FAM-PCPP11 [1]: stronger fluorescence
